Measurements published in patent US9617244B2, “Antibacterial quinoline derivatives” (JANSSEN PHARMACEUTICA NV, priority 2012, dated 2017).
Values after ≈ are worked out from the molar mass of the structure shown.

Experiments:
[1] = tested on: Staphylococcus aureus (ATCC29213); assay: In-vitro anti-bacterial activity, microtitre plate assay, IC90 determination (non-mycobacterial strains); type: cell-based; conditions: 90% inhibitory concentration for bacterial growth, 24 hours, resazurin fluorescence
Summary of the method: (§1)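 Growth inhibition measured fluorometrically with resazurin (530/590 nm) after overnight 37 °C incubation under normal atmosphere. Bacteria added at roughly 100 TCID50 per well in Mueller-Hinton broth to five-fold compound dilution series; IC90 reported in μg/ml.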

[2] = tested on: Streptococcus pneumoniae (ATCC6305); assay: as above; type: cell-based; conditions: 90% inhibitory concentration for bacterial growth, resazurin fluorescence; for IC90 SPN 6305: 24 hours
Summary of the method: as §1

[3] = tested on: Mycobacterium smegmatis (ATCC607); assay: In-vitro anti-bacterial activity against strain M. Smegmatis ATCC607; type: cell-based; conditions: 90% inhibitory concentration for bacterial growth, 48 hours, Alamar Blue fluorescence
Summary of the method: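 IC90 (μg/ml) derived from Alamar Blue fluorescence (530/590 nm) after 48 h growth at 37 °C under 5% CO2. About 250 CFU per well in Mueller-Hinton broth faced five-fold serial compound dilutions in BSA-containing wells.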

| IC90 STA B29213 [1] [µg/mL] | IC90 SPN 6305 [2] [µg/mL] | IC90 MSM 607 [3] [µg/mL] | melting point [°C] | IC90 ([2]; Streptococcus pneumoniae, ATCC6305, 24 h, read-out: IC90 SPN 6305) [µg/mL] | SMILES |
| --- | --- | --- | --- | --- | --- |
| 1.66 (≈ 2.82 µM) | 6.60 (≈ 11.2 µM) | 0.93 (≈ 1.58 µM) | 124 |  | COc1nc2ccc(Br)cc2cc1C(c1ccc(Cl)cc1)C1(O)CCNC(Cc2ccc(F)c(F)c2)C1 (centres unmarked) [Compound 112] |
| 3.42 (≈ 6.3 µM) | 6.83 (≈ 12.6 µM) | 1.72 (≈ 3.17 µM) | 153 |  | COc1nc2ccc(Br)cc2cc1C(c1ccc(C#N)cc1)C1(O)CCNC(Cc2ccccc2)C1 (centres unmarked) [Compound 116] |

Second part, the compound before the results:

| SMILES | IC90 STA B29213 [1] [µg/mL] | IC90 SPN 6305 [2] [µg/mL] | IC90 MSM 607 [3] [µg/mL] | melting point [°C] | IC90 ([2]; Streptococcus pneumoniae, ATCC6305, 24 h, read-out: IC90 SPN 6305) [µg/mL] |
| --- | --- | --- | --- | --- | --- |
| COc1nc2ccc(SC)cc2cc1C(c1ccc(Cl)cc1)C1(O)CCNC(Cc2ccccc2)C1 (centres unmarked) [Compound 92] | 1.64 (≈ 3.16 µM) | 6.54 (≈ 12.6 µM) | 1.64 (≈ 3.16 µM) | 114 |  |
| COc1nc2ccc(Br)cc2cc1C(c1ccc(SC)cc1)C1(O)CCNC(Cc2ccccc2)C1 (centres unmarked) [Compound 99] | 1.78 (≈ 3.16 µM) | 6.32 (≈ 11.2 µM) | 1.42 (≈ 2.52 µM) | 214 |  |
| COc1nc2ccc(Br)cc2cc1C(c1ccc(S(C)(=O)=O)cc1)C1(O)CCNC(Cc2ccccc2)C1 (centres unmarked) [Compound 102] | 3.76 (≈ 6.31 µM) |  | 3.76 (≈ 6.31 µM) | 145 | 7.5 (≈ 12.6 µM) |
